Results published in US12673924B2, “Valiolamine derivatives as glucosidase inhibitors” (Emergent Product Development Gaithersburg Inc., priority 2021, dated 2026).

Target: T1, recombinant human GBA (Homo sapiens, UniProt P04062)
T1 construct: purchased
T1 sequence (P04062 40-536): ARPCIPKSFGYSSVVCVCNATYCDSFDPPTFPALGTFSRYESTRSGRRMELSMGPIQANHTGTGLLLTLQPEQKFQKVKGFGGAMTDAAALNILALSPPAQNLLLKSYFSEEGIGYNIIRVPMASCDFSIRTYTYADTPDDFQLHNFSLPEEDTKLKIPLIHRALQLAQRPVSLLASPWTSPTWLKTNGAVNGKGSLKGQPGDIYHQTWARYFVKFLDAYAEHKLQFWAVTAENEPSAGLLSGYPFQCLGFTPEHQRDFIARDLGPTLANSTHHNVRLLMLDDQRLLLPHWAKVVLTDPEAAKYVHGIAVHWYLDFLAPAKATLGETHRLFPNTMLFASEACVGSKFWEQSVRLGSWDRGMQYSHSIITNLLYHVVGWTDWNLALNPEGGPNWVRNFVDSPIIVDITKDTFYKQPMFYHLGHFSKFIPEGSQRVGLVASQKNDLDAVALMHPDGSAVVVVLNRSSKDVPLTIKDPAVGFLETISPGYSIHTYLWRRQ
Assay: Beta-glucocerebrosidase (GBA) inhibition assay
Format: biochemical
Conditions: 4-methylumbelliferyl-beta-D-pyranoside substrate, 4-PL curve fit
Protocol: Beta-glucocerebrosidase (GBA, also referred to glucosylceramidase): To analyze inhibitory effects of a test compound, commercially available recombinant human GBA was incubated with multiple dilutions of test compound for 60 minutes at 37° C. 4-methylumbelliferyl-beta-D-pyranoside was then introduced to the mixture as substrate. Following incubation for 60 minutes at 37° C., 1,4-methyllumbelliferone was generated, and the reaction was stopped with the stop solution (0.5 M glycine; 0.3 M NaOH, pH 10). 1,4-methyllumbelliferone was detected by fluorescence (excitation at 365 nm, emission at 440 nm). Relative fluorescence is compared to untreated enzymatic activity and test compound concentration is then plotted as a function of percent inhibition. The IC50 was determined using a 4-PL curve fit as the measure of relative inhibitory activity of each test compound (see Table 4).

| IC50 | SMILES |
| --- | --- |
| 139 µM | [N-]=[N+]=Nc1ccc(NCCCCCCN[C@H]2C[C@](O)(CO)[C@@H](O)[C@H](O)[C@H]2O)c([N+](=O)[O-])c1 [Compound 2, (1S,2S,3R,4S,5S)-5-((6-((4-azido-2-nitrophenyl)amino)hexyl)amino)-1-(hydroxymethyl)cyclohexane-1,2,3,4-tetraol] |
| > 1000 µM | COCCCCCCCCCN[C@H]1C[C@](O)(CO)[C@@H](O)[C@H](O)[C@H]1O [Compound 3, (1S,2S,3R,4S,5S)-1-(hydroxymethyl)-5-((9-methoxynonyl)amino)cyclohexane-1,2,3,4-tetraol] |
| > 1000 µM | O=[N+]([O-])c1cc(-n2cnnn2)ccc1NCCCCCCN[C@H]1C[C@](O)(CO)[C@@H](O)[C@H](O)[C@H]1O [Compound 4, (1S,2S,3R,4S,5S)-1-(hydroxymethyl)-5-((6-((2-nitro-4-(1H-tetrazol-1-yl)phenyl)amino)hexyl)amino)cyclohexane-1,2,3,4-tetraol] |
| 776 µM | O=[N+]([O-])c1cc(-n2ccnn2)ccc1NCCCCCCN[C@H]1C[C@](O)(CO)[C@@H](O)[C@H](O)[C@H]1O [Compound 6, (1S,2S,3R,4S,5S)-1-(hydroxymethyl)-5-((6-((2-nitro-4-(1H-1,2,3-triazol-1-yl)phenyl)amino)hexyl)amino)cyclohexane-1,2,3,4-tetraol] |
| > 1000 µM | O=[N+]([O-])c1cc(-c2ncccn2)ccc1NCCCCCCN[C@H]1C[C@](O)(CO)[C@@H](O)[C@H](O)[C@H]1O [Compound 7, (1S,2S,3R,4S,5S)-1-(hydroxymethyl)-5-((6-((2-nitro-4-(pyrimidin-2-yl)phenyl)amino)hexyl)amino)cyclohexane-1,2,3,4-tetraol] |
| > 1000 µM | [N-]=[N+]=Nc1ccc(NCCCCN[C@H]2C[C@](O)(CO)[C@@H](O)[C@H](O)[C@H]2O)c([N+](=O)[O-])c1 [Compound 8, (1S,2S,3R,4S,5S)-5-((4-((4-azido-2-nitrophenyl)amino)butyl)amino)-1-(hydroxymethyl)cyclohexane-1,2,3,4-tetraol] |
| 103 µM | [N-]=[N+]=Nc1ccc(NCCCCCN[C@H]2C[C@](O)(CO)[C@@H](O)[C@H](O)[C@H]2O)c([N+](=O)[O-])c1 [Compound 9, (1S,2S,3R,4S,5S)-5-((5-((4-azido-2-nitrophenyl)amino)pentyl)amino)-1-(hydroxymethyl)cyclohexane-1,2,3,4-tetraol] |
| > 1000 µM | [N-]=[N+]=Nc1ccc(NCCOCCN[C@H]2C[C@](O)(CO)[C@@H](O)[C@H](O)[C@H]2O)c([N+](=O)[O-])c1 [Compound 10, (1S,2S,3R,4S,5S)-5-((2-(2-((4-azido-2-nitrophenyl)amino)ethoxy)ethyl)amino)-1-(hydroxymethyl)cyclohexane-1,2,3,4-tetraol] |
| > 1000 µM | O=C(O)CCCCN[C@H]1C[C@](O)(CO)[C@@H](O)[C@H](O)[C@H]1O [Compound 11, 5-(((1S,2S,3R,4S,5S)-2,3,4,5-tetrahydroxy-5-(hydroxymethyl)cyclohexyl)amino)pentanoic acid] |
| > 1000 µM | N[C@H]1C[C@](O)(CO)[C@@H](O)[C@H](O)[C@H]1O [Valiolamine] |

| SMILES | IC50 |
| --- | --- |
| O=[N+]([O-])c1cc(-n2nccn2)ccc1NCCCCCCN[C@H]1C[C@](O)(CO)[C@@H](O)[C@H](O)[C@H]1O [Compound 5, (1S,2S,3R,4S,5S)-1-(hydroxymethyl)-5-((6-((2-nitro-4-(2H-1,2,3-triazol-2-yl)phenyl)amino)hexyl)amino)cyclohexane-1,2,3,4-tetraol] | 143 µM |
